Assay results as given in PMC9573605, “Exploring Nitric Oxide (NO)-Releasing Celecoxib Derivatives as Modulators of Radioresponse in Pheochromocytoma Cells” (Molecules, 2022).

Key:
[1] = Lipophilicity logD7.4 by HPLC method; format: physicochemical; details: HPLC retention on ODP-50 4B column (Shodex Asahipak), phosphate buffer pH 7.4
Method: The lipophilicity of all synthesized compounds was determined as logD7.4, HPLC value by an HPLC method originally described by Donovan and Pescatore.
The logD7.4HPLC value was determined as previously reported by us utilizing an HPLC method originally described by Donovan and Pescatore.

[2] = Fluorometric NO release assay (Griess assay); format: physicochemical; details: 24 h, 37 °C, relative to initial molar amount of compound
Method: The nitric oxide releasing properties of the nitroester-derivatives 5a–d, 5f, and 6a–d were evaluated using a fluorometric Griess assay in the presence and absence of cysteine to determine thiol-dependent and spontaneous release of nitric oxide (Figure 3).
Nitric oxide release of compounds within 24 h at 37 °C was measured using the fluorometric nitric oxide microplate assay kit ab65327 (Abcam, Cambridge, UK). For measurement of spontaneous release, 1.8 nmol of compounds were incubated in 75 µL Dulbecco’s PBS containing 0.05% v/v residual DMSO and 2.5 mM DTPA (pH = 7.1) for 24 h at 37 °C. Thiol-dependent release was measured accordingly in presence of 2.5 mM cysteine. Two series of nitrate standards were prepared (0.2−1 nmol) in 75 µL incubation buffer, in presence or absence of cysteine, respectively. According to the manufacturer’s instructions, all nitrate content in samples and standards was enzymatically converted into nitrite through incubation with nitrate reductase for 2 h at room temperature, and the resulting nitrite content (total nitric oxide) was determined through reaction with 2,3-diaminonaphthalene followed by measurement of fluorescence intensity at λex/em = 360/450 nm using a microplate reader. Nitrite content in samples was calculated from linear regression of standards and expressed as relative nitric oxide release (%) normalized to the initial molar amount of compound. NONOate served as positive control.
Figure 3 Spontaneous and thiol-dependent NO^• release from NO-COXIBs; measured using fluorometric Griess assay (n = 2); relative release indicates the percentage of soluble nitrogen species (nitrate + nitrite) detected in the incubation buffer after 24 h compared to the initial molar amount of compounds; NO^• release of NONOate (positive control) exceeded the maximum detection limit; data presented as mean ± range.

[3] = test system: MPC-HIF2α tumor spheroids; experiment: Spheroid regrowth assay with external X-ray irradiation; format: cell-based, mouse; details: X-ray 15 Gy; 10 µM compound added 2 h post irradiation; controls 83%
Method: (§1) As a first pilot study, growth responses of MPC-HIF2α spheroids were investigated after two different radiation treatments such as single-dose external beam irradiation (X-ray) and incubation with [^177Lu]LuCl3, respectively. NO-COXIBs were tested at 10 µM for additional effects on radiation treatments against a vehicle-treated control (w/o) and celecoxib (Ce).
The log2-fold change in spheroid diameter is given as a standardized parameter for spheroid growth, which is positive for growing, near zero for stagnating and negative for shrinking spheroids. Furthermore, regrowth probabilities are given as a parameter to compare how many of the overall studied spheroids in one group recovered within 14 days. Radioprotective effects occurred when compounds were added 2 h before irradiation. In this setup, all compounds accelerated the increase in spheroid size during the regrowth phase compared to controls (Figure 5A, upper panel). Regrowth probabilities of 67–100% under NO-COXIB treatment remained however similar to controls (83%). Radiosensitizing effects occurred when compounds were added 2 h post irradiation. In this setup, all compounds decelerated the increase in spheroid size during the regrowth phase compared to controls.
(§2) Genetically modified mouse pheochromocytoma (MPC) cells expressing a codon-optimized Epas1 gene (encoding HIF2α) were cultured as three-dimensional tumor spheroids as published elsewhere. External X-ray beam radiation treatment and [^177Lu]LuCl3 radionuclide treatment was performed as reported previously with some modifications. In brief, spheroids were irradiated with a 200 kV photon beam using a Maxishot X-ray system equipped with a Y.TU/320-D03 tube (YXLON, Hamburg, Germany), growth of spheroids (n = 6) with diameters between 300−400 µm was measured in response to one fixed radiation dose, 15 Gy for X-ray treatment, and 0.25 MBq/mL of [^177Lu]LuCl3 for radionuclide treatment corresponding to a cumulative dose of approximately 2 Gy delivered for 6 days. The applied radiation doses were selected based on the half-maximal spheroid control doses (SCD50) as previously determined for MPC HIF2α spheroids by us. Spheroids were considered as regrown at 100 µm increase in diameter compared to treatment start or at a diameter growth rate of 15 µm per day. Results are reported as spheroid regrowth probability (%).
(§3) Figure 5 Effects of NO-COXIBs on radiation treatments of MPC-HIF2α tumor spheroids. (A) Growth responses to X-ray treatment with a radiation dose of 15 Gy in combination with 10 µM NO-COXIBs added to the medium at indicated time points before or after irradiation. (B) Growth responses to [^177Lu]LuCl3 treatment with an initial activity concentration of 0.25 MBq/mL in combination with NO-COXIBs; log2 fold changes in diameter indicate the number of diameter doublings compared to treatment start; 14-day regrowth probability indicates the fraction of spheroids able to regrow within 14 days after treatment start; (black arrows) time point or duration of radiation treatment; (w/o) vehicle controls are shown as black lines; (Ce) celecoxib.

[4] = test system: MPC-HIF2α tumor spheroids; experiment: Spheroid regrowth assay with [177Lu]LuCl3 treatment; format: cell-based, mouse; details: 10 µM compound with 0.25 MBq [177Lu]LuCl3 for six days; for 14-day regrowth probability: controls 50%
Excerpt: Radionuclide therapy is a fast-evolving treatment modality gaining more importance in treating cancer. For treatment of pheochromocytomas and paragangliomas, in particular, somatostatin type 2 receptor-targeted radionuclide therapy with [^177Lu]Lu-(Tyr^3)octreotate is currently investigated in clinical controlled trials (e.g., NCT04029428, NCT03923257, NCT03206060). To assess the additional effects of NO-COXIBs on the outcome of Lu-177 therapy, a simplified in vitro setup was used here, where MPC-HIF2α tumor spheroids were treated with 10 µM of the compounds and simultaneously 0.25 MBq of [^177Lu]LuCl3 for six days.
as §2, §3

MPC-HIF2a spheroids = experiment: Growth of non-irradiated tumor spheroids; format: cell-based, mouse; details: 10 µM compound, linear regression between 0 and 9 days
Method: as §1
4. Growth-rate of tumor spheroids in the presence of NO -COXIBS without radiation treatment
Compound Diameter growth rate
Table S2. Effects of NO-COXIBs on spheroid growth; diameter growth rates of non-irradiated MPC-HIF2a spheroids in presence of 10 µM of compounds determined from linear regression between 0 and 9 days after treatment start; (w/o) vehicle control treated with DMSO

A2058 cells = test system: A2058 cells; design: method as in PMID 26081289; details: 10 µM, DMSO control 6.6 Gy; cited from earlier work
Mel-Juso cells = test system: Mel-Juso cells; design: method as in PMID 26081289; details: 10 µM, DMSO control 4.2 Gy; cited from earlier work
[5] = design: method as in PMID 25547413; details: cited from earlier work

chromatographic logD [1]	thiol-dependent NO release ([2]; 2.5 mM cysteine)	spontaneous NO release ([2]; absence of cysteine)	SMILES	14-day regrowth probability [3] [%]	growth response (spheroid size) ([4]; compared to controls)	14-day regrowth probability [4]	Diameter growth rate ± SEM (MPC-HIF2a spheroids) [µm/day]	required radiation dose for 10% survival (A2058 cells) [Gy]	required radiation dose for 10% survival (Mel-Juso cells) [Gy]	scavenging effects on OH•, O2•−, and OCl- [5]
3.76	29–53%	10–22%	Cc1ccc(-c2c(Cl)c(CO[N+](=O)[O-])nn2-c2ccc(S(N)(=O)=O)cc2)cc1 [5a, [4-Chloro-1-(4-sulfamoylphenyl)-5-(p-tolyl)-1H-pyrazol-3-yl]methyl nitrate]	17	prevented spheroids from shrinking in size	60–80%	54.1 ± 5.2	5.2	3.2	–
–	–	–	Cc1ccc(-c2cc(C(F)(F)F)nn2-c2ccc(S(N)(=O)=O)cc2)cc1 [celecoxib]	0	–	40%	57.3 ± 4.0	–	–	did not show any scavenging effects
